The values below come from patent US9452980B2, “Substituted benzamides” (Hoffmann-La Roche Inc., priority 2009, dated 2016).

One assay addresses mouse TAAR1 (Mus musculus (Mouse), UniProt Q923Y8). As to the kind of experiment: Radioligand binding assay on mouse TAAR1. The note with it: read-out: Ki (μM) mouse. A digest of the protocol: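 Displacement of the tritiated oxazol-2-ylamine radioligand was measured by filtration and scintillation counting after 1 h incubation at 4 °C. Test concentrations ran 10 pM–10 μM in duplicate, with 10 μM cold ligand giving nonspecific binding. The receptor source was membranes of a stable mouse TAAR1 HEK293 line.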

The next assay has as its target rat TAAR1 (Rattus norvegicus (Rat), UniProt Q923Y9). Kind of assay: Radioligand binding assay on rat TAAR1. The note with it: read-out: Ki (μM) rat. A digest of the protocol:
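Membranes from HEK293 cells stably expressing rat TAAR1, with Kd checked per batch by saturation. Competition with ³H-(S)-4-[(ethyl-phenyl-amino)-methyl]-4,5-dihydro-oxazol-2-ylamine, compounds 10 pM–10 μM in duplicate, 1 hr at 4 °C. Filtration then scintillation counting; nonspecific binding defined with 10 μM unlabeled ligand.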

Where [1] appears, read: mouse TAAR1, HEK-293 membranes, first value of cell mouse/rat.
[2] abbreviates: rat TAAR1, HEK-293 membranes, second value of cell mouse/rat.

Counter-ions that a name gives are not always drawn. Like-named read-outs stand apart in the source and are kept apart here.

mouse TAAR1, sequence (Q923Y8 whole entry): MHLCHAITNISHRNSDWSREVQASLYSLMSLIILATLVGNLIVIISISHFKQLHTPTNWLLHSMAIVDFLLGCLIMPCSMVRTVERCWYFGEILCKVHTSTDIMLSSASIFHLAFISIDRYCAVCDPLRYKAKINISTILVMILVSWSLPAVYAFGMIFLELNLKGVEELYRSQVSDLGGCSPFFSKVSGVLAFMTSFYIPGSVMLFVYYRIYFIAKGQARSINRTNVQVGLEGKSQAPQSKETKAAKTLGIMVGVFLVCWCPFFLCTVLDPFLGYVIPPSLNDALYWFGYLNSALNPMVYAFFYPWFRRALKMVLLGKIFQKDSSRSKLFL
rat TAAR1, sequence (Q923Y9 whole entry): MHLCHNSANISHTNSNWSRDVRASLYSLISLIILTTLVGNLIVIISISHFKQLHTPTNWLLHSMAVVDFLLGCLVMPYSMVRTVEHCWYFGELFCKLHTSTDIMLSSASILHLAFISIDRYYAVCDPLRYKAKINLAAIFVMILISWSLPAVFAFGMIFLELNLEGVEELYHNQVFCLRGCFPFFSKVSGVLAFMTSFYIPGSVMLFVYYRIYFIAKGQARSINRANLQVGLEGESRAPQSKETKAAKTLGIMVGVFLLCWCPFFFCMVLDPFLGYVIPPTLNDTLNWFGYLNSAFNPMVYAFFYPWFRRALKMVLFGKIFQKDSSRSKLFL

The Ki is the equilibrium dissociation constant of an inhibitor or competing ligand from its target. As for `O=C(Nc1ccc(C2CNCCO2)cc1)Nc1ccccc1Cl` (racemic) [Example 305, (RS)-1-(2-Chlorophenyl)-3-(4-(morpholin-2-yl)phenyl)urea hydrochloride], the inhibition constant (Ki) on mouse TAAR1 (setting [1]) worked out at 0.0266 µM; at rat TAAR1 it was 0.0038 µM.

Take `O=C(Nc1ccc([C@H]2CCCNC2)cc1)c1ccc(Cl)cc1` [Example 113, 4-Chloro-N—((R)-4-piperidin-3-yl-phenyl)-benzamide]: the Ki was 0.0095 µM on mouse TAAR1 (setting [1]) and 0.004 µM on rat TAAR1 (setting [2]).

Regarding `O=C(Nc1ccc(C2CCNC2)cc1)c1ccc(Br)cn1` (racemic) [Example 87, (RS)-5-Bromo-pyridine-2-carboxylic acid (4-pyrrolidin-3-yl-phenyl)-amide hydrochloride], the figures for the Ki on mouse TAAR1 (setting [1]) and on rat TAAR1 (setting [2]) were 0.0051 µM and 0.017 µM, respectively.

As for `O=C(Nc1ccc(C2CNCCO2)cc1)c1ccc(Oc2ccc(C(=O)O)c(Cl)c2)cc1` (racemic) [Example 215, (RS)-2-Chloro-4-(4-(4-(morpholin-2-yl)phenylcarbamoyl)phenoxy)benzoic acid hydrochloride], the Ki on mouse TAAR1 (setting [1]) amounted to 2.82 µM; at rat TAAR1 (setting [2]), 2.31 µM.

As for `O=C(Nc1ccc([C@@H]2CNCCO2)cc1)c1ccc(Cl)cc1F` [Example 229, (R)-4-Chloro-2-fluoro-N-(4-(morpholin-2-yl)phenyl)benzamide hydrochloride], the Ki was 0.0218 µM on mouse TAAR1 and 0.0019 µM at rat TAAR1 (setting [2]).

With `O=C(Nc1ccc(C2CCNC2)cc1)OCCc1cccc(Cl)c1` (racemic) [Example 121, (RS)-(4-Pyrrolidin-3-yl-phenyl)-carbamic acid 2-(3-chloro-phenyl)-ethyl ester], the Ki on mouse TAAR1 (setting [1]) was determined as 0.0005 µM; on rat TAAR1 (setting [2]), 0.0004 µM.

On to `O=C(Nc1ccc([C@H]2CNCCO2)cc1)c1ccc(Cl)nc1` [Example 208, (S)-6-Chloro-N-(4-(morpholin-2-yl)phenyl)nicotinamide hydrochloride], for which the figures for the Ki on mouse TAAR1 (setting [1]) and on rat TAAR1 were 0.0762 µM and 0.0044 µM, respectively.

On to `O=C(Nc1ccc(C2CCNC2)cc1)c1ccc(Cl)c(Cl)c1` (racemic) [Example 56, (RS)-3,4-Dichloro-N-(4-pyrrolidin-3-yl-phenyl)-benzamide hydrochloride], for which the Ki was 0.0008 µM at mouse TAAR1 (setting [1]) and 0.0018 µM on rat TAAR1 (setting [2]).

Turning to `CSc1ccc(C(=O)Nc2ccc(C3CNCCO3)cc2)cc1` (racemic) [Example 216, (RS)-4-(Methylthio)-N-(4-(morpholin-2-yl)phenyl)benzamide hydrochloride], the Ki was found to be 0.0176 µM at mouse TAAR1 (setting [1]) and 0.0012 µM on rat TAAR1.

For the compound `O=C(Nc1ccc(C2CCCNC2)cc1)c1ccc(Cl)c(Cl)c1` (racemic) [Example 96, (RS)-3,4-Dichloro-N-(4-piperidin-3-yl-phenyl)-benzamide hydrochloride], the Ki on mouse TAAR1 (setting [1]) came out at 0.0016 µM; on rat TAAR1 (setting [2]), 0.0067 µM.

Consider `O=C(Nc1ccc(C2CNCCO2)cc1)c1cccc(Cl)c1` (racemic) [Example 209, (RS)-3-chloro-N-(4-(morpholin-2-yl)phenyl)benzamide hydrochloride], for which the inhibition constant Ki at mouse TAAR1 (setting [1]) stood at 0.0078 µM; on rat TAAR1 (setting [2]), 0.0016 µM.

Regarding `O=C(Nc1ccc(C2CCNC2)cc1)OCc1ccc(F)cc1` (racemic) [Example 47, (RS)-(4-Pyrrolidin-3-yl-phenyl)-carbamic acid 4-fluoro-benzyl ester hydrochloride], the Ki on mouse TAAR1 (setting [1]) was found to be 0.0019 µM; on rat TAAR1 (setting [2]), 0.0048 µM.

Regarding `O=C(Nc1ccc(C2CCNC2)cc1)Nc1ccc(Cl)cc1Cl` (racemic) [Example 7, (RS)-1-(2,4-Dichloro-phenyl)-3-(4-pyrrolidin-3-yl-phenyl)-urea hydrochloride], the Ki at mouse TAAR1 (setting [1]) turned out to be 0.0028 µM; on rat TAAR1 (setting [2]) it was 0.0036 µM.

Consider `O=C(Nc1ccc(CCC2CCCCN2)cc1)c1ccc(F)cc1` (racemic) [Example 170, (RS)-4-Fluoro-N-(4-(2-(piperidin-2-yl)ethyl)phenyl)benzamide hydrochloride], for which the Ki was found to be 0.234 µM on mouse TAAR1 (setting [1]) and 0.0158 µM at rat TAAR1 (setting [2]).

For `O=C(Nc1ccc([C@@H]2CCCNC2)cc1)c1ccc(Cl)c(Cl)c1` [Example 152, 3,4-Dichloro-N—((S)-4-piperidin-3-yl-phenyl)-benzamide hydrochloride], the inhibitory constant (Ki) was determined as 0.0086 µM at mouse TAAR1 and 0.0003 µM on rat TAAR1 (setting [2]).

Turning to `O=C(Nc1ccc([C@@H]2CCCNC2)cc1)c1cnc(C(F)(F)F)cn1` [Example 248, (S)—N-(4-(Piperidin-3-yl)phenyl)-5-(trifluoromethyl)pyrazine-2-carboxamide hydrochloride], the results for the Ki on mouse TAAR1 and on rat TAAR1 (setting [2]) were 0.188 µM and 0.0143 µM, respectively.

With `O=C(Nc1ccc(C2CNCCO2)cc1)c1ccc(OCC2CC2)cc1` (racemic) [Example 214, (RS)-4-Cyclopropylmethoxy-N-(4-morpholin-2-yl-phenyl)-benzamide hydrochloride], the Ki on mouse TAAR1 turned out to be 0.0057 µM; on rat TAAR1 (setting [2]), 0.0016 µM.

Turning to `O=C(Nc1ccc(C2CCNC2)cc1)c1ccc(Cl)nc1` (racemic) [Example 43, (RS)-6-Chloro-pyridine-3-carboxylic acid (4-pyrrolidin-3-yl-phenyl)-amide hydrochloride], the Ki came out at 0.0041 µM on mouse TAAR1 (setting [1]) and 0.0242 µM at rat TAAR1 (setting [2]).

Turning to `O=C(Nc1ccc(C2CNCCO2)cc1)c1cnc(Cl)c(Cl)c1` (racemic) [Example 219, (RS)-5,6-Dichloro-N-(4-(morpholin-2-yl)phenyl)nicotinamide hydrochloride], the Ki at mouse TAAR1 (setting [1]) was determined as 0.0059 µM; at rat TAAR1 (setting [2]), 0.0031 µM.

As to `O=C(Nc1ccc(C2CCN(Cc3ccccc3)C2)cc1)c1ccc(Cl)cc1` (racemic) [Example 34, (RS)—N-[4-(1-Benzyl-pyrrolidin-3-yl)-phenyl]-4-chloro-benzamide], the Ki on mouse TAAR1 (setting [1]) worked out at 0.0269 µM; on rat TAAR1 (setting [2]) it was 0.214 µM.

Regarding `CCc1ccc(C(=O)Nc2ccc([C@@H]3CCCNC3)cc2)cn1` [Example 297, (S)-6-Ethyl-N-(4-(piperidin-3-yl)phenyl)nicotinamide], the Ki at mouse TAAR1 (setting [1]) came to 0.018 µM; on rat TAAR1 (setting [2]), 0.0044 µM.

With `O=C(Nc1ccc(C2CCNC2)cc1)c1ccc(Cl)cc1Cl` (racemic) [Example 19, (RS)-2,4-Dichloro-N-(4-pyrrolidin-3-yl-phenyl)-benzamide hydrochloride], the Ki on mouse TAAR1 (setting [1]) is 0.0035 µM; at rat TAAR1 (setting [2]), 0.0189 µM.

`O=C(Nc1ccc(C2CCCNC2)cc1)c1ccc(Cl)cn1` (racemic) [Example 78, (RS)-5-Chloro-pyridine-2-carboxylic acid (4-piperidin-3-yl-phenyl)-amide hydrochloride]: the values for the inhibitory constant (Ki) at mouse TAAR1 (setting [1]) and on rat TAAR1 (setting [2]) were 0.0067 µM and 0.0466 µM, respectively.

Regarding `O=C(Nc1ccc(C2CCNC2)cc1)OC(c1ccc(Cl)cc1)C(F)(F)F` (racemic) [Example 130, (RS)-(4-Pyrrolidin-3-yl-phenyl)-carbamic acid (RS)-1-(4-chloro-phenyl)-2,2,2-trifluoro-ethyl ester], the Ki came out at 0.0017 µM at mouse TAAR1 (setting [1]) and 0.0169 µM at rat TAAR1 (setting [2]).

For `O=C(Nc1ccc([C@@H]2CCCNC2)cc1)c1cnc(Br)cn1` [Example 251, (S)-5-Bromo-N-(4-(piperidin-3-yl)phenyl)pyrazine-2-carboxamide 2,2,2-trifluoroacetate], the Ki on mouse TAAR1 (setting [1]) turned out to be 0.48 µM; at rat TAAR1 it was 0.0054 µM.

As for `Cc1ccc(C(=O)Nc2ccc([C@@H]3CCCNC3)cc2)cc1Cl` [Example 225, (S)-3-Chloro-4-methyl-N-(4-(piperidin-3-yl)phenyl)benzamide hydrochloride], the Ki is 0.0189 µM on mouse TAAR1 and 0.0006 µM on rat TAAR1 (setting [2]).

`O=C(Nc1ccc(CCC2CCCCN2)cc1)c1ccc(Cl)cc1` (racemic) [Example 169, (RS)-4-Chloro-N-(4-(2-(piperidin-2-yl)ethyl)phenyl)benzamide hydrochloride]: the Ki at mouse TAAR1 (setting [1]) is 0.0607 µM; on rat TAAR1 (setting [2]) it was 0.0027 µM.

Take `COc1ccc(C(=O)Nc2ccc(C3CCNC3)cc2)c(F)c1` (racemic) [Example 88, (RS)-2-Fluoro-4-methoxy-N-(4-pyrrolidin-3-yl-phenyl)-benzamide hydrochloride]: the Ki stood at 0.0052 µM at mouse TAAR1 (setting [1]) and 0.102 µM at rat TAAR1 (setting [2]).

Take `O=C(Nc1ccc(C2CCNC2)cc1)OCCc1cc(F)ccc1F` (racemic) [Example 124, (RS)-(4-Pyrrolidin-3-yl-phenyl)-carbamic acid 2-(2,5-difluoro-phenyl)-ethyl ester]: the Ki at mouse TAAR1 (setting [1]) was 0.0013 µM; on rat TAAR1 (setting [2]), 0.0036 µM.

On to `O=C(Nc1ccc(C2CNCCO2)cc1)c1ccc(C(F)(F)F)cn1` (racemic) [Example 141, (RS)-5-Trifluoromethyl-pyridine-2-carboxylic acid (4-morpholin-2-yl-phenyl)-amide hydrochloride], for which the Ki was determined as 0.0201 µM at mouse TAAR1 (setting [1]) and 0.0024 µM on rat TAAR1 (setting [2]).

As to `O=C(Nc1ccc(C2CCNC2)nc1)c1ccc(Cl)cc1` (racemic) [Example 140, (RS)-4-Chloro-N-(6-pyrrolidin-3-yl-pyridin-3-yl)-benzamide], the Ki was found to be 0.245 µM on mouse TAAR1 (setting [1]) and 0.0358 µM at rat TAAR1 (setting [2]).

With `O=C(NCc1ccc([C@@H]2CNCCO2)cc1)c1ccc(Cl)nc1` [Example 315, (R)-6-Chloro-N-(4-(morpholin-2-yl)benzyl)nicotinamide hydrochloride], the Ki at mouse TAAR1 (setting [1]) came to 1.35 µM; at rat TAAR1 (setting [2]), 0.009 µM.

In the case of `O=C(Nc1ccc(OC2CCNC2)cc1)c1ccc(Cl)cc1` (racemic) [Example 39, (RS)-4-Chloro-N-[4-(pyrrolidin-3-yloxy)-phenyl]-benzamide hydrochloride], the figures for the inhibitory constant (Ki) at mouse TAAR1 (setting [1]) and at rat TAAR1 (setting [2]) were 0.0007 µM and 0.0139 µM, respectively.

Consider `O=C(Nc1ccc([C@@H]2CCCNC2)cc1)c1ccc(C(F)(F)F)nc1` [Example 242, (S)—N-(4-(Piperidin-3-yl)phenyl)-6-(trifluoromethyl)nicotinamide hydrochloride], for which the results for the inhibition constant Ki at mouse TAAR1 and on rat TAAR1 were 0.037 µM and 0.0089 µM, respectively.
